This is an account of results in ChEMBL document CHEMBL5465560, “Selectivity Literature for EUbOPEN Chemogenomic Library” (2024).

In assay [1] the target is Serine/threonine-protein kinase 35 (Homo sapiens) (UniProt Q8TDR2). The following applies: at 10 µM.
In assay [2] the target is Serine/threonine-protein kinase mTOR (Homo sapiens, UniProt P42345). The assay is described as follows: Selectivity interaction (KinomeScan (DiscoverX)) EUB0000666a MTOR. The following applies: at 10 µM.
In assay [3] the target is T1, Inhibitor of nuclear factor kappa-B kinase subunit epsilon (Homo sapiens) (UniProt Q14164).
T1 sequence (whole entry): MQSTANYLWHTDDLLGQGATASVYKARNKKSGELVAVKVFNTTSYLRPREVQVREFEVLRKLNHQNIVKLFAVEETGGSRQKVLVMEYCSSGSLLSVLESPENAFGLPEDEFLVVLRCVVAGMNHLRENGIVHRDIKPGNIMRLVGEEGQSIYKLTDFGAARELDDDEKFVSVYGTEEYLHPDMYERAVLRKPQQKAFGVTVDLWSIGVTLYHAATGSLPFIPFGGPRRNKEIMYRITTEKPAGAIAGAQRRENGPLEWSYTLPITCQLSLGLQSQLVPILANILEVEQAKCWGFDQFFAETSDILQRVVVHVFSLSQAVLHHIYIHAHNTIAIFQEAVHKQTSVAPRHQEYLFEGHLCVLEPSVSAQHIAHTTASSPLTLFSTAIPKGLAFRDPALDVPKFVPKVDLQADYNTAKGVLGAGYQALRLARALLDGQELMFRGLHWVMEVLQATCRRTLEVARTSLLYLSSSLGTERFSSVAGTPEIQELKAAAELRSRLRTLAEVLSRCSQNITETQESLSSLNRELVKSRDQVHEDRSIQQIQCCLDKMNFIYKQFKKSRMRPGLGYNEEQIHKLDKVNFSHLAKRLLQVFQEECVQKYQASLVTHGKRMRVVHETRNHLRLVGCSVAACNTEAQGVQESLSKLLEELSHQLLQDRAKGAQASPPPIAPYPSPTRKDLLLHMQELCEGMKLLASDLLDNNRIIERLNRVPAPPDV
The experiment in a line: Selectivity interaction (KinomeScan (DiscoverX)) EUB0001619a IKBKE. The following applies: at 1 µM.

Assay [4] deals with T2, Casein kinase I isoform alpha-like (Homo sapiens) (UniProt Q8N752).
T2 sequence (whole entry): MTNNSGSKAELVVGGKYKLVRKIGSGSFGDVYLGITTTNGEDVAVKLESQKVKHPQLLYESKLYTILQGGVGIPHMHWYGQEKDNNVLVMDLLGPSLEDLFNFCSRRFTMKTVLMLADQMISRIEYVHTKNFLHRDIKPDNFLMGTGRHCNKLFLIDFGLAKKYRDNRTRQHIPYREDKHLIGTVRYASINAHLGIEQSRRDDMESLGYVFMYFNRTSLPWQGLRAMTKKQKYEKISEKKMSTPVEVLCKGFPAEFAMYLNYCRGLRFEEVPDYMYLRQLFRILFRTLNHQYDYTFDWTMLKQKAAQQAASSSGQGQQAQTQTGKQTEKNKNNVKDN
The note with it: at 10 µM.

In assay [5] the target is Casein kinase II subunit alpha' (Homo sapiens) (UniProt P19784). The note with it: at 10 µM.
Assay [6] deals with Serine/threonine-protein kinase N2 (Homo sapiens, UniProt Q16513). The assay is described as follows: Selectivity interaction (Millipore kinase profiler) EUB0000124b PKN2. The note with it: at 10 µM.
Assay [7] deals with Epidermal growth factor receptor (Homo sapiens, UniProt P00533).
Assay [8] has as its target Phosphatidylinositol 4-kinase beta (Homo sapiens, UniProt Q9UBF8). The experiment in a line: Selectivity interaction (KinomeScan (DiscoverX)) EUB0001049a PI4KB. The note with it: at 1 µM.
Assay [9] has as its target T3, 5-hydroxytryptamine receptor 1A (Homo sapiens) (UniProt P08908).
T3 sequence (whole entry): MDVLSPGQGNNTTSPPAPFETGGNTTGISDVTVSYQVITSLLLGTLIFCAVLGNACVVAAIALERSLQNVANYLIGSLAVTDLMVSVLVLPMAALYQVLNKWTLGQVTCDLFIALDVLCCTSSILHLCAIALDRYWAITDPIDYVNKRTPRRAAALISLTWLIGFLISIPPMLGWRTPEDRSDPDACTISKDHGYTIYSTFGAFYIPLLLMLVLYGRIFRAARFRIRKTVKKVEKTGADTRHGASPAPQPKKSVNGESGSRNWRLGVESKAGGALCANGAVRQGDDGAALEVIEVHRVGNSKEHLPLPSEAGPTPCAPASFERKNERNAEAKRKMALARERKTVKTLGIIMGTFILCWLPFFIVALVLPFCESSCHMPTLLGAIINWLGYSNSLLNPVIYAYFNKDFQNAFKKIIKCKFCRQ
The assay is described as follows: Selectivity interaction (Eurofins CEREP Diversity Profile (receptors and ion channels)) EUB0000279b HTR1A. The following applies: at 10 µM.

For assay [10], the target named is T4, Inhibitor of nuclear factor kappa-B kinase subunit alpha (Homo sapiens) (UniProt O15111).
T4 sequence (whole entry): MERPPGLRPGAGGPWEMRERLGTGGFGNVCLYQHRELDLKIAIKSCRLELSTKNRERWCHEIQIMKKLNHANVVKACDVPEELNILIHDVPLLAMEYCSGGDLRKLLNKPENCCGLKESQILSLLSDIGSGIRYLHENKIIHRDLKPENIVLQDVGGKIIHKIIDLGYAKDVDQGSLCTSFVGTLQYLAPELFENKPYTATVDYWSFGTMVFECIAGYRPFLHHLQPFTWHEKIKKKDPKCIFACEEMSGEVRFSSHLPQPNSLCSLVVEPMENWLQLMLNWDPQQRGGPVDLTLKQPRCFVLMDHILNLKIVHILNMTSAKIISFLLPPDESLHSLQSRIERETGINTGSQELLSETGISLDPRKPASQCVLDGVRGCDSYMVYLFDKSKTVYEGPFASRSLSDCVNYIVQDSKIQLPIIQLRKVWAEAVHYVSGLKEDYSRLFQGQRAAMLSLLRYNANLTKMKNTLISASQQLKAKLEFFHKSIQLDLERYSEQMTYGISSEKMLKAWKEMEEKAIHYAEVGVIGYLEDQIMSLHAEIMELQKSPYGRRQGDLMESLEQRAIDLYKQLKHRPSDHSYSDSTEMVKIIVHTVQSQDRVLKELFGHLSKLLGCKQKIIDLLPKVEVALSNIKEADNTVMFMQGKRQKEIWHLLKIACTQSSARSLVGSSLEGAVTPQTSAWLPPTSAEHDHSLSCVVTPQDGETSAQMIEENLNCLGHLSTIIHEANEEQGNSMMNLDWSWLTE
The experiment in a line: Selectivity interaction (KinomeScan (DiscoverX)) EUB0000618a CHUK. The note with it: at 10 µM.

A value given as a limit tells only on which side of the number the result lay.

Serine/threonine-protein kinase N2, sequence (Q16513 whole entry, looked up): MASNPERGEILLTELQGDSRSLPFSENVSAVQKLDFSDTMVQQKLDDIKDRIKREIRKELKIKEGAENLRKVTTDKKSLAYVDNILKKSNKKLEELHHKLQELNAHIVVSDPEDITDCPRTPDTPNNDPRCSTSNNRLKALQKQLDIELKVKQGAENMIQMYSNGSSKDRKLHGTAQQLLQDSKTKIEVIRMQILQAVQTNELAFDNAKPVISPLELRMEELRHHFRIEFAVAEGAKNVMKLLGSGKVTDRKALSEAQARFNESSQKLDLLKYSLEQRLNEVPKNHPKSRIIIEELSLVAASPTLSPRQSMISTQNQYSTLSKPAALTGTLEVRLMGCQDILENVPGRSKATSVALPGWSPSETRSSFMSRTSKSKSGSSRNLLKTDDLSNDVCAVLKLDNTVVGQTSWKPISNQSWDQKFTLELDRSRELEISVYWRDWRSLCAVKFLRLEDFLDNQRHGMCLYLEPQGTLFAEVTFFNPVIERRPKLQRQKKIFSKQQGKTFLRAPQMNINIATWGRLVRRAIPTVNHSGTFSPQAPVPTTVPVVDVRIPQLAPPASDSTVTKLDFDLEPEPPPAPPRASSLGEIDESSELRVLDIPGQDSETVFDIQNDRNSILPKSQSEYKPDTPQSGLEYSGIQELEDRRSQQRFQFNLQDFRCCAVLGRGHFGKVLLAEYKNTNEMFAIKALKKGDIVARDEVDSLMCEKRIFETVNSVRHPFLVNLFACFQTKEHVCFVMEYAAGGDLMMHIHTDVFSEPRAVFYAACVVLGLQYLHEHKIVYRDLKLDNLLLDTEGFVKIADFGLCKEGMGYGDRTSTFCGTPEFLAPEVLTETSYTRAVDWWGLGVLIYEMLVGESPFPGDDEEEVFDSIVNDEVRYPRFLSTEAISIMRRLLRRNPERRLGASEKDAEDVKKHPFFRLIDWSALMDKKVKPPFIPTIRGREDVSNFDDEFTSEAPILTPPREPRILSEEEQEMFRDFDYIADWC
Epidermal growth factor receptor, sequence (P00533 whole entry): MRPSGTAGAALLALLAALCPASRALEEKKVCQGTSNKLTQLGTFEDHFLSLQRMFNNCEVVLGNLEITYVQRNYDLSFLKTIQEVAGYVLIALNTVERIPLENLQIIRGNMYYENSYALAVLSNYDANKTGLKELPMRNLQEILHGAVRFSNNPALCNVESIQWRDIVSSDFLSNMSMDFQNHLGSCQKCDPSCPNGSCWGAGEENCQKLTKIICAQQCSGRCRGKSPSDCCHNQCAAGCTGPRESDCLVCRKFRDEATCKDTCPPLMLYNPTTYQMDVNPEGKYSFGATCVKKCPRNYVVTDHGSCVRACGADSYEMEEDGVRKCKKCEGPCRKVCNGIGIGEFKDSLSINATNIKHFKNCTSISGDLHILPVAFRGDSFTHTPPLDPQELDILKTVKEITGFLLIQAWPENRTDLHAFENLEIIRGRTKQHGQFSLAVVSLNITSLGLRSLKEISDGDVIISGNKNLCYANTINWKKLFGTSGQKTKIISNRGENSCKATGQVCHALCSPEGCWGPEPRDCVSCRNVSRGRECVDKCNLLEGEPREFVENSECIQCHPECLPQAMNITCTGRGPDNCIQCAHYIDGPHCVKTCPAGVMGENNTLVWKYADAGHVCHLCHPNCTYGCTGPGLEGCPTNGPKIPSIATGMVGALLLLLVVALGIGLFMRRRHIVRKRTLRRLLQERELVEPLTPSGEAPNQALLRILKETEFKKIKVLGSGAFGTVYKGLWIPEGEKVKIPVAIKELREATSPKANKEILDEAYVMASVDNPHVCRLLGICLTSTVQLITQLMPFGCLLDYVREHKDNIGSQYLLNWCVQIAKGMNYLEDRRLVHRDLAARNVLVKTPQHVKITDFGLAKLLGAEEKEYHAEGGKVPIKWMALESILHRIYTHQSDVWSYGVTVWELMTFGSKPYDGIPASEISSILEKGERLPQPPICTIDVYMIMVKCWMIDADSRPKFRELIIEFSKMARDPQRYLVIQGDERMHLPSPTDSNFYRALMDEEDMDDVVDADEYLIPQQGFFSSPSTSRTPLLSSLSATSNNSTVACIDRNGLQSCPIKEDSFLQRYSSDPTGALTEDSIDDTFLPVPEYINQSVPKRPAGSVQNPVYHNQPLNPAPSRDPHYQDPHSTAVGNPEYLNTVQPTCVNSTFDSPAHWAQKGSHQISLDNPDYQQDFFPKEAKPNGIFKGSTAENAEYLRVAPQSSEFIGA
Serine/threonine-protein kinase 35 (Homo sapiens), sequence (Q8TDR2 whole entry): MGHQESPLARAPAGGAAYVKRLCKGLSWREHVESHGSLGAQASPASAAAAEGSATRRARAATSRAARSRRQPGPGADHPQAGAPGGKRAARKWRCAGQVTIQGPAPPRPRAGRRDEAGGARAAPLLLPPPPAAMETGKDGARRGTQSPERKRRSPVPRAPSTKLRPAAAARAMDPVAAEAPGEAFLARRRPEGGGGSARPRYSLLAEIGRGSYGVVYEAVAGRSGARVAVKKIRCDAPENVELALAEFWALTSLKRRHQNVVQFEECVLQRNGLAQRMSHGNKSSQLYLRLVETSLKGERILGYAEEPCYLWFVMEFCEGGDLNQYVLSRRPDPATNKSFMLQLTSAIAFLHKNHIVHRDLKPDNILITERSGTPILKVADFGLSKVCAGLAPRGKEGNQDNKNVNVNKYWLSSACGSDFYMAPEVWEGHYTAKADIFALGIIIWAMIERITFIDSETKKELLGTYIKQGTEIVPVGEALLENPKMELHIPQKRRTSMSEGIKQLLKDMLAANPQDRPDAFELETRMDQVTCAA
Casein kinase II subunit alpha' (Homo sapiens), sequence (P19784 whole entry, looked up): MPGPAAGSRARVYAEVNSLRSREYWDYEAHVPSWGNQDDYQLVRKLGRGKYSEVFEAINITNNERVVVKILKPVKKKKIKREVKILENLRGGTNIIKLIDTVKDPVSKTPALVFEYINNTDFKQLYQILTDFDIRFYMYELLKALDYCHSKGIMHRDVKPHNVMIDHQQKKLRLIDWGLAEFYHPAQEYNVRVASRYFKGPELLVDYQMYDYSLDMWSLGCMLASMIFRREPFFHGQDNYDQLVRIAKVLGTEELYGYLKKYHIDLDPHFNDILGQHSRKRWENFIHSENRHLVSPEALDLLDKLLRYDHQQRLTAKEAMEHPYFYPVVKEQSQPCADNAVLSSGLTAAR
Phosphatidylinositol 4-kinase beta, sequence (Q9UBF8 2-816 limits assumed): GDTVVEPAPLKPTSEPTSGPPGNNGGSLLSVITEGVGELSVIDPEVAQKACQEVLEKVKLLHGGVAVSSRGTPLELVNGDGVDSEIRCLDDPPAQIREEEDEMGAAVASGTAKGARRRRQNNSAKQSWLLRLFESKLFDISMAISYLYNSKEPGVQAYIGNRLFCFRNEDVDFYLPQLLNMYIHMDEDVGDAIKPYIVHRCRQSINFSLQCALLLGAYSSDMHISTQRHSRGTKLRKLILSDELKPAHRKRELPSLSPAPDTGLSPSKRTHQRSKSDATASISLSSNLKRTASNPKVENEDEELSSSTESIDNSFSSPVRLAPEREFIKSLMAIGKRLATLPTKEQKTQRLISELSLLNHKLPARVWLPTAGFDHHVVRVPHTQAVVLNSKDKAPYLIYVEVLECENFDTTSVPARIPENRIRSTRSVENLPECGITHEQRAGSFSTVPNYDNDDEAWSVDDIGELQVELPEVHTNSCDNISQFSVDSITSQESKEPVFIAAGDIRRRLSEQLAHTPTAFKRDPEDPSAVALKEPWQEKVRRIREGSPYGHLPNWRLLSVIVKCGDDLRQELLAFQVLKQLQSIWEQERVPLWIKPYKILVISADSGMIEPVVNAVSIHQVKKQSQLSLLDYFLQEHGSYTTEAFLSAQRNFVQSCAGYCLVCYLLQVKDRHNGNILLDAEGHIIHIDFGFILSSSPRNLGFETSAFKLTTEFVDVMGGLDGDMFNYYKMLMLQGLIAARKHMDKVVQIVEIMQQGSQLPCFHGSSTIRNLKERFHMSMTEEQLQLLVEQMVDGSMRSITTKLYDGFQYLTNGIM

In [1], `Cc1cc([C@@H](C)Nc2ccccc2C(=O)O)c2nc(N3CCOCC3)cc(=O)n2c1` [AZD-6482] yielded a % of control of 95%.
`O=C(NOC[C@H](O)CO)c1ccc(F)c(F)c1Nc1ccc(I)cc1F`: the % of control in assay [2] was 100%.
With `N#Cc1cccc(-c2c[nH]c3ncnc(N4CCOCC4)c23)c1`, the % of control in [3] was found to be 100%.
Turning to `CCN(CC)CCCCNc1ncc2cc(-c3cc(OC)cc(OC)c3)c(NC(=O)NC(C)(C)C)nc2n1`, the % of control in assay [4] and in [5] was 100% each time.
Regarding `CC(=O)Nc1cccc(-n2c(=O)n(C3CC3)c(=O)c3c(Nc4ccc(I)cc4F)n(C)c(=O)c(C)c32)c1`, the % of control in assay [6] was 98%.
By IC50 is commonly meant the concentration at which inhibition is half-maximal. The compound `CCc1cccc(CC)c1NC(=O)c1nn(C)c2c1CCc1cnc(Nc3ccc(C(=O)NC4CCN(C)CC4)cc3OC(F)(F)F)nc1-2` came in with an IC50 in [7] greater than 10 µM.
Regarding `COc1cc(Nc2nc(C)cc(-c3cnn4nc(OC)ccc34)n2)cc(C(F)(F)F)c1`, the % of control in assay [8] turned out to be 85%.
`CC(=O)c1cc(-c2ccccc2OCC2CC2)c2ncccn12` had a % of control in [9] of 83%.
The compound `O[C@H]1CC[C@H](Nc2ncc3nc(Nc4c(F)cc(F)cc4F)n([C@H]4CCOC4)c3n2)CC1` showed a % of control in assay [10] of 86%.
